Laboratory results published in PubChem BioAssay (NCI).
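96-well plates; 48 h exposure; 5 concentrations. Endpoints by linear interpolation between flanking doses. Not reached: highest tested concentration assigned. Abbreviation: GI50, concentration required for 50% inhibition of growth. The concentration for full growth arrest is given as TGI.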

What was measured:
Test in all cases: NCI-60 cell line screen, 48 h
SF-539 CNS = tested on: SF-539 CNS
SF-268 CNS = tested on: SF-268 CNS
K-562 leukemia = tested on: K-562 leukemia
UACC-257 melanoma = tested on: UACC-257 melanoma
ACHN renal = tested on: ACHN renal
HCC-2998 colon = tested on: HCC-2998 colon
SK-MEL-2 melanoma = tested on: SK-MEL-2 melanoma
SK-MEL-5 melanoma = tested on: SK-MEL-5 melanoma
786-0 renal = tested on: 786-0 renal
MDA-MB-435 = tested on: MDA-MB-435
EKVX NSCLC = tested on: EKVX NSCLC
HCT-116 colon = tested on: HCT-116 colon
RXF 393 renal = tested on: RXF 393 renal
NCI-H226 lung = tested on: NCI-H226 lung
SK-MEL-28 melanoma = tested on: SK-MEL-28 melanoma
M14 melanoma = tested on: M14 melanoma
RPMI-8226 leukemia = tested on: RPMI-8226 leukemia
SNB-75 CNS = tested on: SNB-75 CNS
COLO 205 colon = tested on: COLO 205 colon
CAKI-1 renal = tested on: CAKI-1 renal
MCF7 breast = tested on: MCF7 breast
HS 578T breast = tested on: HS 578T breast
HL-60(TB) leukemia = tested on: HL-60(TB) leukemia
OVCAR-4 ovarian = tested on: OVCAR-4 ovarian
KM12 colon = tested on: KM12 colon
LOX IMVI melanoma = tested on: LOX IMVI melanoma
DU-145 prostate = tested on: DU-145 prostate
MOLT-4 leukemia = tested on: MOLT-4 leukemia
PC-3 prostate = tested on: PC-3 prostate
SNB-19 CNS = tested on: SNB-19 CNS
SW-620 colon = tested on: SW-620 colon
NCI-H460 lung = tested on: NCI-H460 lung
MDA-MB-231 breast = tested on: MDA-MB-231 breast
SR leukemia = tested on: SR leukemia
CCRF-CEM leukemia = tested on: CCRF-CEM leukemia
HOP-92 NSCLC = tested on: HOP-92 NSCLC
HT29 colon = tested on: HT29 colon
A549 NSCLC = tested on: A549 NSCLC
SF-295 CNS = tested on: SF-295 CNS
UO-31 renal = tested on: UO-31 renal
A498 renal = tested on: A498 renal
NCI-H522 lung = tested on: NCI-H522 lung
U251 CNS = tested on: U251 CNS
IGROV1 ovarian = tested on: IGROV1 ovarian
BT-549 breast = tested on: BT-549 breast
TK-10 renal = tested on: TK-10 renal
OVCAR-5 ovarian = tested on: OVCAR-5 ovarian
OVCAR-8 ovarian = tested on: OVCAR-8 ovarian
T-47D breast = tested on: T-47D breast
OVCAR-3 ovarian = tested on: OVCAR-3 ovarian
SN12C renal = tested on: SN12C renal
MALME-3M melanoma = tested on: MALME-3M melanoma
HCT-15 colon = tested on: HCT-15 colon
HOP-62 NSCLC = tested on: HOP-62 NSCLC
NCI-H23 lung = tested on: NCI-H23 lung
UACC-62 melanoma = tested on: UACC-62 melanoma
SK-OV-3 ovarian = tested on: SK-OV-3 ovarian
MDA-MB-468 breast = tested on: MDA-MB-468 breast

## CN(C)c1nc(NCCNS(=O)(=O)c2ccc(C(=O)/C=C/c3ccccc3)cc2)nc(N2CCOCC2)n1
SF-539 CNS
  GI50: 11.1 µM
  TGI: 24.3 µM
SF-268 CNS
  GI50: 13.7 µM
  TGI: 31 µM
K-562 leukemia
  GI50: 2.19 µM
  TGI: > 100 µM
UACC-257 melanoma
  GI50: 17.9 µM
  TGI: 32.3 µM
ACHN renal
  GI50: 18.2 µM
  TGI: 36.3 µM
HCC-2998 colon
  GI50: 16.7 µM
  TGI: 31.1 µM
SK-MEL-2 melanoma
  GI50: 15.3 µM
  TGI: 29.5 µM
SK-MEL-5 melanoma
  GI50: 15.9 µM
  TGI: 29.4 µM
786-0 renal
  GI50: 14.8 µM
  TGI: 29.1 µM
MDA-MB-435
  GI50: 14.7 µM
  TGI: 28.3 µM
EKVX NSCLC
  GI50: 14.7 µM
  TGI: 30.6 µM
HCT-116 colon
  GI50: 1.82 µM
  TGI: 3.59 µM
RXF 393 renal
  GI50: 7.87 µM
  TGI: 22.8 µM
NCI-H226 lung
  GI50: 13.5 µM
  TGI: 31.7 µM
SK-MEL-28 melanoma
  GI50: 17.2 µM
  TGI: 33.1 µM
M14 melanoma
  GI50: 14.6 µM
  TGI: 31.6 µM
RPMI-8226 leukemia
  GI50: 3.25 µM
  TGI: 11.4 µM
SNB-75 CNS
  GI50: 5.49 µM
  TGI: 19.8 µM
COLO 205 colon
  GI50: 20.2 µM
  TGI: 40.3 µM
CAKI-1 renal
  GI50: 12.2 µM
  TGI: 24.6 µM
MCF7 breast
  GI50: 3.49 µM
  TGI: 13.8 µM
HS 578T breast
  GI50: 17.1 µM
  TGI: 64.4 µM
HL-60(TB) leukemia
  GI50: 6.18 µM
  TGI: 42.1 µM
OVCAR-4 ovarian
  GI50: 14.3 µM
  TGI: 27.8 µM
KM12 colon
  GI50: 2 µM
  TGI: 4.23 µM
LOX IMVI melanoma
  GI50: 1.97 µM
  TGI: 4.13 µM
DU-145 prostate
  GI50: 15.1 µM
  TGI: 28.4 µM
MOLT-4 leukemia
  GI50: 4.27 µM
  TGI: > 100 µM
PC-3 prostate
  GI50: 8.63 µM
  TGI: 23.6 µM
SNB-19 CNS
  GI50: 14.8 µM
  TGI: 29.1 µM
SW-620 colon
  GI50: 3.41 µM
  TGI: 12.7 µM
NCI-H460 lung
  GI50: 18.2 µM
  TGI: 38.3 µM
MDA-MB-231 breast
  GI50: 13.9 µM
  TGI: 27.6 µM
SR leukemia
  GI50: 3.2 µM
  TGI: > 100 µM
CCRF-CEM leukemia
  GI50: 4.41 µM
  TGI: 75.9 µM
HOP-92 NSCLC
  GI50: 12.2 µM
  TGI: 26.6 µM
HT29 colon
  GI50: 3.8 µM
  TGI: 13.1 µM
A549 NSCLC
  GI50: 13.6 µM
  TGI: 28.3 µM
SF-295 CNS
  GI50: 15.6 µM
  TGI: 30.4 µM
UO-31 renal
  GI50: 11.2 µM
  TGI: 25 µM
A498 renal
  GI50: 14.6 µM
  TGI: 27.8 µM
NCI-H522 lung
  GI50: 13.6 µM
  TGI: 27.1 µM
U251 CNS
  GI50: 11.7 µM
  TGI: 25.9 µM
IGROV1 ovarian
  GI50: 15.3 µM
  TGI: 31.9 µM
BT-549 breast
  GI50: 11.2 µM
  TGI: 23.7 µM
TK-10 renal
  GI50: 16.4 µM
  TGI: 30.2 µM
OVCAR-5 ovarian
  GI50: 12.1 µM
  TGI: 26 µM
OVCAR-8 ovarian
  GI50: 16.4 µM
  TGI: 31.8 µM
T-47D breast
  GI50: 16 µM
  TGI: 37.4 µM
OVCAR-3 ovarian
  GI50: 15.3 µM
  TGI: 28.6 µM
SN12C renal
  GI50: 14.6 µM
  TGI: 28.6 µM
MALME-3M melanoma
  GI50: 15.2 µM
  TGI: 29.3 µM
HCT-15 colon
  GI50: 5.21 µM
  TGI: 20.5 µM
HOP-62 NSCLC
  GI50: 16.4 µM
  TGI: 32.1 µM
NCI-H23 lung
  GI50: 16 µM
  TGI: 30.4 µM
UACC-62 melanoma
  GI50: 12 µM
  TGI: 25 µM
SK-OV-3 ovarian
  GI50: 15.6 µM
  TGI: 29.8 µM
MDA-MB-468 breast
  GI50: 4.17 µM
  TGI: 17.7 µM

## Cn1cc(-c2cc3nc(-c4cn(C)c5ncccc45)cc(N)n3n2)c2cc(F)ccc21
SF-539 CNS
  GI50: 10.6 µM
  TGI: 28.8 µM
SF-268 CNS
  GI50: 15.6 µM
  TGI: > 100 µM
K-562 leukemia
  GI50: 10.5 µM
  TGI: > 100 µM
UACC-257 melanoma
  GI50: 65.6 µM
  TGI: > 100 µM
ACHN renal
  GI50: 4.21 µM
  TGI: 20.6 µM
HCC-2998 colon
  GI50: 61.2 µM
  TGI: > 100 µM
SK-MEL-2 melanoma
  GI50: 10.4 µM
  TGI: 23.3 µM
SK-MEL-5 melanoma
  GI50: 46.2 µM
  TGI: > 100 µM
786-0 renal
  GI50: 4.82 µM
  TGI: 19.8 µM
MDA-MB-435
  GI50: > 100 µM
  TGI: > 100 µM
EKVX NSCLC
  GI50: 19 µM
  TGI: > 100 µM
HCT-116 colon
  GI50: > 100 µM
  TGI: > 100 µM
RXF 393 renal
  GI50: 2.61 µM
  TGI: 9.35 µM
NCI-H226 lung
  GI50: 4.04 µM
  TGI: 20.2 µM
SK-MEL-28 melanoma
  GI50: > 100 µM
  TGI: > 100 µM
M14 melanoma
  GI50: 57 µM
  TGI: > 100 µM
RPMI-8226 leukemia
  GI50: 13.6 µM
  TGI: > 100 µM
COLO 205 colon
  GI50: 6.78 µM
  TGI: > 100 µM
CAKI-1 renal
  GI50: 13 µM
  TGI: > 100 µM
MCF7 breast
  GI50: 13.4 µM
  TGI: > 100 µM
HS 578T breast
  GI50: 11.3 µM
  TGI: 69.6 µM
HL-60(TB) leukemia
  GI50: > 100 µM
  TGI: > 100 µM
OVCAR-4 ovarian
  GI50: 4.12 µM
  TGI: 20.9 µM
KM12 colon
  GI50: > 100 µM
  TGI: > 100 µM
LOX IMVI melanoma
  GI50: 2.43 µM
  TGI: 5.78 µM
DU-145 prostate
  GI50: 8.97 µM
  TGI: > 100 µM
MOLT-4 leukemia
  GI50: 20 µM
  TGI: > 100 µM
PC-3 prostate
  GI50: 11 µM
  TGI: > 100 µM
SNB-19 CNS
  GI50: 5.79 µM
  TGI: 24.3 µM
SW-620 colon
  GI50: 52.7 µM
  TGI: > 100 µM
NCI-H460 lung
  GI50: 5.43 µM
  TGI: > 100 µM
MDA-MB-231 breast
  GI50: 9.62 µM
  TGI: 26.8 µM
SR leukemia
  GI50: 2.48 µM
  TGI: > 100 µM
CCRF-CEM leukemia
  GI50: 7.83 µM
  TGI: > 100 µM
HOP-92 NSCLC
  GI50: 11.2 µM
  TGI: 46.7 µM
HT29 colon
  GI50: 4.14 µM
  TGI: 28.4 µM
A549 NSCLC
  GI50: 7.71 µM
  TGI: > 100 µM
SF-295 CNS
  GI50: 3.22 µM
  TGI: 14 µM
UO-31 renal
  GI50: 31.9 µM
  TGI: > 100 µM
A498 renal
  GI50: 50 µM
  TGI: > 100 µM
NCI-H522 lung
  GI50: 10.8 µM
  TGI: 30.6 µM
U251 CNS
  GI50: 4.12 µM
  TGI: 15.4 µM
IGROV1 ovarian
  GI50: 4.45 µM
  TGI: 53.1 µM
BT-549 breast
  GI50: 13.3 µM
  TGI: 48 µM
TK-10 renal
  GI50: 10.3 µM
  TGI: 31.3 µM
OVCAR-5 ovarian
  GI50: 25.2 µM
  TGI: > 100 µM
OVCAR-8 ovarian
  GI50: 4.6 µM
  TGI: 40.5 µM
T-47D breast
  GI50: 6.15 µM
  TGI: 67.1 µM
OVCAR-3 ovarian
  GI50: 14.1 µM
  TGI: 57.8 µM
SN12C renal
  GI50: 9.61 µM
  TGI: > 100 µM
MALME-3M melanoma
  GI50: 10.6 µM
  TGI: 37.7 µM
HCT-15 colon
  GI50: > 100 µM
  TGI: > 100 µM
HOP-62 NSCLC
  GI50: 4.05 µM
  TGI: 16.6 µM
NCI-H23 lung
  GI50: 13.7 µM
  TGI: 58.2 µM
UACC-62 melanoma
  GI50: 20.4 µM
  TGI: > 100 µM
SK-OV-3 ovarian
  GI50: 14.4 µM
  TGI: 34.5 µM
MDA-MB-468 breast
  GI50: 3.81 µM
  TGI: 22.1 µM
